From patent US11725036B2, “Modified lipidated relaxin B chain peptides and their therapeutic use” (Sanofi, priority 2018, dated 2023)
Starred links: 1 amine or outer side, 2 acyl side, 3 side chain; linkers in the order of their positions; H or OH if unused. Non-standard residues stand in square brackets, D forms with d. Residues, ends and D or L forms follow the SMILES beside them. Groups on a side chain read outwards from the residue. *: point of attachment. X15 = CCCCCCCCCCCCCCCCCC(=O)N[C@@H](CCC(=O)N[C@@H](CCC(=O)N[C@@H](CCC(=O)NCCCOCCOCCOCCCNC(=O)COCC(=O)NCCCOCCOCCOCCCNC(=O)COCC(=O)NCCCOCCOCCOCCCNC(=O)COCC(=O)*)C(=O)O)C(=O)O)C(=O)O; X1 = CCCCCCCCCCCCCCCC(=O)N[C@@H](CCC(=O)N[C@@H](CCC(=O)N[C@@H](CCC(=O)NCCCOCCOCCOCCCNC(=O)CCC(=O)NCCCOCCOCCOCCCNC(=O)CCC(=O)NCCCOCCOCCOCCCN*)C(=O)O)C(=O)O)C(=O)O; X8 = CCCCCCCCCCCCCCCC(=O)N[C@@H](CCC(=O)N[C@@H](CCC(=O)N[C@@H](CCC(=O)N[C@@H](CCC(=O)NCCCOCCOCCOCCCNC(=O)CCC(=O)NCCCOCCOCCOCCCN*)C(=O)O)C(=O)O)C(=O)O)C(=O)O; Trp(5-F) = N[C@@H](Cc1c[nH]c2ccc(F)cc12)C(=O)O; γGlu = O=C(O)[C@H](CCC(=O)[*:2])N[*:1]; Palmitoyl = CCCCCCCCCCCCCCCC(=O)*; Suc = O=C(CCC(=O)[*:2])[*:1]; αMeK = C[C@](N)(CCCCN)C(=O)O; AEEA = NCCOCCOCC(=O)O; Aib = CC(C)(N)C(=O)O

Target: T1, RXFP1 (Homo sapiens, UniProt Q9HBX9)
T1 construct: OVCAR5 cells expressing endogenous RXFP1; endogenous in cells; host or cells: OVCAR5
T1 sequence (Q9HBX9 1-757): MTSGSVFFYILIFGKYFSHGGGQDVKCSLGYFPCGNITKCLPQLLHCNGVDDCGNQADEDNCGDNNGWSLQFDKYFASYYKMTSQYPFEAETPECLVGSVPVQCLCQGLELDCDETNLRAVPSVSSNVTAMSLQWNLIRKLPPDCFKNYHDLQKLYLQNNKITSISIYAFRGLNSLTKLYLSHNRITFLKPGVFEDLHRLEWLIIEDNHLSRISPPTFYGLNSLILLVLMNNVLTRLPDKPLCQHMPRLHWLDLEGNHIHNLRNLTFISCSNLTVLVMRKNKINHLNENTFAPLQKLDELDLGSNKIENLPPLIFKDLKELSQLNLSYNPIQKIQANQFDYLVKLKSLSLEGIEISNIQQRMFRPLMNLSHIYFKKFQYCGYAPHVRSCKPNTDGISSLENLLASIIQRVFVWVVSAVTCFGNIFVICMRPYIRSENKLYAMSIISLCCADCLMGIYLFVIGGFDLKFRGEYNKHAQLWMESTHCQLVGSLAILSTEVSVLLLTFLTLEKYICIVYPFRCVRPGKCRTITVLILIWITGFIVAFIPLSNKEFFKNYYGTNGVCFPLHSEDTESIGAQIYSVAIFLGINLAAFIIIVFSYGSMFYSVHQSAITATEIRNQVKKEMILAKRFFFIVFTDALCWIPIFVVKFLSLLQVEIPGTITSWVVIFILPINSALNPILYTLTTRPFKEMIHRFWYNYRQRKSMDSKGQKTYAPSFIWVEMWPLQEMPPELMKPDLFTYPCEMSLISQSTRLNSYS
Experiment: OVCAR5 cAMP assay (HTRF)
Assay type: cell-based
Settings: for EC50: OVCAR 5 cells expressing endogenous RXFP1, cAMP readout; for Emax: OVCAR 5 cells, maximal cAMP relative to H2-relaxin
Text: OVCAR5 cells expressing endogenous RXFP1 were used to test RXP1 agonist properties of peptides of the invention, and in particular of the peptides of sequence SEQ ID NO: 1-97.
Since RXFP1 is a Gs coupled GPCR, cAMP was used as readout of RXFP1 activation.
Isobutyl Methyl Xanthine (IBMX) was used to inhibit phosphodiesterase activity facilitating cAMP measurements. HTRF (Homogenous Time Resolved Fluorescence) technology was used to detect cAMP due to its great sensitivity.
In summary, OVCAR5 were grown in regular medium (RPMI) containing 10% fetal calf serum (FCS) and 1% antibiotics (penicillin/streptomycin).
Before the experiments, cells were detached with accutase and incubated for 40 minutes at 37° C. with 1 mM (3-isobutyl-1-methylxanthine) IBMX.
Cells were then distributed in 384 black well plates containing increasing concentrations of the different peptides in a fix volume of medium (without FCS).
After an incubation of 30 min at 37° C. in an humid incubator in 5% CO2, the reaction was stopped by adding a fixed volume of a solution containing a lysis buffer and cAMP-D2 (cAMP labeled with the dye d2) and the anti cAMP antibody linked to Europium and used for cAMP detection.
Readout of the experiment were performed on a fluorimeter allowing HTRF measurement. Activation curves were generated by plotting the intracellular value of cAMP versus log 10 of the compound concentration.
The 50% activation concentration (EC50) was calculated by nonlinear regression using the sigmoidal dose-response (variable slope) equation with Prism 5 software.
Emax % was determined as the maximal intracellular value of cAMP for test compound (upper limit of cAMP vs concentration curve) divided by the maximal intracellular value of cAMP for H2-relaxin determined in the same test occasion multiplied by 100. Emax %=100×[cAMPtest cpd]/[cAMPH2-Rlx]

Row | Compound | EC50 [nM] | Emax [%]
1 | CCCCCCCCCCCCCCCC(=O)N[C@@H](CCC(=O)N[C@@H](CCC(=O)N[C@@H](CCC(=O)NCCCOCCOCCOCCCNC(=O)CCC(=O)NCCCOCCOCCOCCCNC(=O)CCC(=O)NCCCOCCOCCOCCCNC(=O)CCC(=O)NCCCC[C@H](NC(=O)CNC(=O)[C@H](CCC(=O)O)NC(=O)[C@@H](NC(=O)C(C)(C)NC(=O)[C@@H](NC(=O)[C@H](CCCCNC(C)=O)NC(=O)[C@H](C)NC(=O)[C@H](CCCNC(=N)N)NC(=O)[C@@H](NC(=O)[C@H](CCCCN)NC(=O)[C@H](CCC(=O)O)NC(=O)[C@H](CCCNC(=N)N)NC(=O)CNC(=O)[C@H](CCC(=O)O)NC(=O)[C@H](CC(C)C)NC(C)=O)C(C)C)[C@@H](C)CC)[C@@H](C)CC)C(=O)N[C@@H](CO)C(=O)N[C@H](C(=O)N[C@@H](Cc1ccccc1)C(=O)N[C@@H](CO)C(=O)N[C@@](C)(CCCCN)C(=O)N[C@@H](CCCNC(=N)N)C(=O)N[C@@H](C)C(=O)N[C@@H](CCCCNC(C)=O)C(N)=O)[C@@H](C)O)C(=O)O)C(=O)O)C(=O)O [compound 84] (Ac-LEGREKVRAK(Ac)I[Aib]IEGK([Suc-X1])STFS[αMeK]RAK(Ac)-NH2) | 0.1 | 95
2 | CCCCCCCCCCCCCCCC(=O)N[C@@H](CCC(=O)N[C@@H](CCC(=O)N[C@@H](CCC(=O)N[C@@H](CCC(=O)NCCCOCCOCCOCCCNC(=O)CCC(=O)NCCCOCCOCCOCCCNC(=O)CCC(=O)NCCCC[C@H](NC(=O)CNC(=O)[C@H](CCC(=O)O)NC(=O)C(C)(C)NC(=O)C(C)(C)NC(=O)[C@@H](NC(=O)[C@H](CCCCNC(C)=O)NC(=O)[C@H](C)NC(=O)[C@H](CCCNC(=N)N)NC(=O)[C@@H](NC(=O)[C@H](CCCCN)NC(=O)[C@H](CCC(=O)O)NC(=O)[C@H](CCCNC(=N)N)NC(=O)CNC(=O)[C@H](CCC(=O)O)NC(=O)[C@H](CC(C)C)NC(C)=O)C(C)C)[C@@H](C)CC)C(=O)N[C@@H](CO)C(=O)N[C@H](C(=O)N[C@@H](Cc1ccccc1)C(=O)N[C@@H](CO)C(=O)N[C@@](C)(CCCCN)C(=O)N[C@@H](CCCNC(=N)N)C(=O)N[C@@H](C)C(=O)N[C@@H](CCCCNC(C)=O)C(N)=O)[C@@H](C)O)C(=O)O)C(=O)O)C(=O)O)C(=O)O [compound 10] (Ac-LEGREKVRAK(Ac)I[Aib][Aib]EGK([Suc-X8])STFS[αMeK]RAK(Ac)-NH2) | 0.79 | 95
3 | CCCCCCCCCCCCCCCC(=O)N[C@@H](CCC(=O)N[C@@H](CCC(=O)N[C@@H](CCC(=O)NCCCOCCOCCOCCCNC(=O)CCC(=O)NCCCOCCOCCOCCCNC(=O)CCC(=O)NCCCOCCOCCOCCCNC(=O)CCC(=O)NCCCC[C@H](NC(=O)CNC(=O)[C@H](CCC(=O)O)NC(=O)C(C)(C)NC(=O)C(C)(C)NC(=O)[C@@H](NC(=O)[C@H](CCCCNC(C)=O)NC(=O)[C@H](C)NC(=O)[C@H](CCCNC(=N)N)NC(=O)[C@@H](NC(=O)[C@H](CCCNC(=N)N)NC(=O)[C@H](CCC(=O)O)NC(=O)[C@H](CCCNC(=N)N)NC(=O)CNC(=O)[C@H](CCC(=O)O)NC(=O)[C@H](CC(C)C)NC(C)=O)C(C)C)[C@@H](C)CC)C(=O)N[C@@H](CO)C(=O)N[C@H](C(=O)N[C@@H](Cc1c[nH]c2ccc(F)cc12)C(=O)N[C@@H](CO)C(=O)NC(C)(C)C(=O)N[C@@H](CCCNC(=N)N)C(=O)N[C@@H](CCCNC(=N)N)C(=O)N[C@@H](CCCCNC(C)=O)C(N)=O)[C@@H](C)O)C(=O)O)C(=O)O)C(=O)O [compound 92] (Ac-LEGRERVRAK(Ac)I[Aib][Aib]EGK([Suc-X1])ST[Trp(5-F)]S[Aib]RRK(Ac)-NH2) | 0.1 | 99
4 | CCCCCCCCCCCCCCCC(=O)N[C@@H](CCC(=O)N[C@@H](CCC(=O)N[C@@H](CCC(=O)NCCCOCCOCCOCCCNC(=O)CCC(=O)NCCCOCCOCCOCCCNC(=O)CCC(=O)NCCCOCCOCCOCCCNC(=O)CCC(=O)NCCCC[C@H](NC(=O)CNC(=O)[C@H](CCC(=O)O)NC(=O)C(C)(C)NC(=O)C(C)(C)NC(=O)[C@@H](NC(=O)[C@H](CCCCNC(C)=O)NC(=O)[C@H](C)NC(=O)[C@H](CCCNC(=N)N)NC(=O)[C@@H](NC(=O)[C@H](CCCCN)NC(=O)[C@H](CCC(=O)O)NC(=O)[C@H](CCCNC(=N)N)NC(=O)CNC(=O)[C@H](CCC(=O)O)NC(=O)[C@H](CC(C)C)NC(C)=O)C(C)C)[C@@H](C)CC)C(=O)N[C@@H](CO)C(=O)N[C@H](C(=O)N[C@@H](Cc1ccccc1)C(=O)N[C@H](C(=O)N[C@@H](CCCNC(=N)N)C(=O)N[C@@H](CCCNC(=N)N)C(=O)N[C@@H](C)C(=O)N[C@@H](CCCCNC(C)=O)C(N)=O)[C@@H](C)O)[C@@H](C)O)C(=O)O)C(=O)O)C(=O)O [compound 93] (Ac-LEGREKVRAK(Ac)I[Aib][Aib]EGK([Suc-X1])STFTRRAK(Ac)-NH2) | 0.77 | 86
5 | CCCCCCCCCCCCCCCCCC(=O)N[C@@H](CCC(=O)N[C@@H](CCC(=O)N[C@@H](CCC(=O)NCCCOCCOCCOCCCNC(=O)COCC(=O)NCCCOCCOCCOCCCNC(=O)COCC(=O)NCCCOCCOCCOCCCNC(=O)COCC(=O)NCCCC[C@H](NC(=O)CNC(=O)[C@H](CCC(=O)O)NC(=O)C(C)(C)NC(=O)C(C)(C)NC(=O)[C@@H](NC(=O)[C@H](CCCCNC(C)=O)NC(=O)[C@H](C)NC(=O)[C@H](CCCNC(=N)N)NC(=O)[C@@H](NC(=O)[C@H](CCCCN)NC(=O)[C@H](CCC(=O)O)NC(=O)[C@H](CCCNC(=N)N)NC(=O)CNC(=O)[C@H](CCC(=O)O)NC(=O)[C@H](CC(C)C)NC(C)=O)C(C)C)[C@@H](C)CC)C(=O)N[C@@H](CO)C(=O)N[C@H](C(=O)N[C@@H](Cc1ccccc1)C(=O)N[C@@H](CO)C(=O)N[C@@](C)(CCCCN)C(=O)N[C@@H](CCCNC(=N)N)C(=O)N[C@@H](C)C(=O)N[C@@H](CCCCNC(C)=O)C(N)=O)[C@@H](C)O)C(=O)O)C(=O)O)C(=O)O [compound 32] (Ac-LEGREKVRAK(Ac)I[Aib][Aib]EGK(X15)STFS[αMeK]RAK(Ac)-NH2) | 0.1 | 97
6 | CCCCCCCCCCCCCCCC(=O)N[C@@H](CCC(=O)N[C@@H](CCC(=O)N[C@@H](CCC(=O)NCCOCCOCC(=O)NCCOCCOCC(=O)NCCOCCOCC(=O)NCCCC[C@H](NC(=O)CNC(=O)[C@H](CCC(=O)O)NC(=O)C(C)(C)NC(=O)C(C)(C)NC(=O)[C@@H](NC(=O)[C@H](CCCCNC(C)=O)NC(=O)[C@H](C)NC(=O)[C@H](CCCNC(=N)N)NC(=O)[C@@H](NC(=O)[C@H](CCCCN)NC(=O)[C@H](CCC(=O)O)NC(=O)[C@H](CCCNC(=N)N)NC(=O)CNC(=O)[C@H](CCC(=O)O)NC(=O)[C@H](CC(C)C)NC(C)=O)C(C)C)[C@@H](C)CC)C(=O)N[C@@H](CO)C(=O)N[C@H](C(=O)N[C@@H](Cc1c[nH]c2ccccc12)C(=O)N[C@@H](CO)C(=O)NC(C)(C)C(=O)N[C@@H](CCCNC(=N)N)C(=O)N[C@@H](CCCCN)C(=O)N[C@@H](CCCCNC(C)=O)C(N)=O)[C@@H](C)O)C(=O)O)C(=O)O)C(=O)O [compound 19] (Ac-LEGREKVRAK(Ac)I[Aib][Aib]EGK([AEEA-AEEA-AEEA-γGlu-γGlu-γGlu-Palmitoyl])STWS[Aib]RKK(Ac)-NH2) | 11.5 | 94
